Experimental findings from patent US8455530B2, “Crystalline form of an alkoxyimidazol-1-ylmethyl biphenyl carboxylic acid” (Theravance, Inc., priority 2008, dated 2013) are described below.

The nature of series [1]: Solid state stability assessment (storage, HPLC purity). The class given is physicochemical. The following applies: for purity at time 0: HPLC area percentage.
Assay in series [2]: as above
The class given is physicochemical. The following applies: for change in chemical purity after 28 days of storage at 40° C.: HPLC. As to the method: Samples of the crystalline freebase prepared as in Example 7, about 100 mg each, were stored in multiple vials at 5° C. (closed container), 25° C. (closed container), and at 40° C. (closed container). At specific intervals, the entire contents of a representative vial was analyzed by the following HPLC method:
Column: Agilent Zorbox SB-C18, 4.6×250 mm, 5 μm (Part No. 880975-902). Mobile Phase A: 80% H2O, 20% MeCN, 0.01% TFA. Mobile Phase B: 80% MeCN, 20% H2O, 0.01% TFA. Flow rate: 1 mL/min. Injection Volume: 20 μL. Detector: 250 nm.
The purity of the samples was determined by HPLC area percentage (% AUC).

Series [3] in a line: Thermal stability (heating at 60° C.). Type of series: physicochemical. How it is done: A sample of the crystalline form prepared as in Example 6 was heated at 60° C. for 5 days. The sample lost only 2% of its purity, thus the crystalline compound of the invention has excellent thermal stability.
For another series, the target named is T1, human AT1 receptor (Homo sapiens, UniProt P30556).
T1 construct: expressed in transfected cells; membrane preparation
T1 sequence (P30556 1-359): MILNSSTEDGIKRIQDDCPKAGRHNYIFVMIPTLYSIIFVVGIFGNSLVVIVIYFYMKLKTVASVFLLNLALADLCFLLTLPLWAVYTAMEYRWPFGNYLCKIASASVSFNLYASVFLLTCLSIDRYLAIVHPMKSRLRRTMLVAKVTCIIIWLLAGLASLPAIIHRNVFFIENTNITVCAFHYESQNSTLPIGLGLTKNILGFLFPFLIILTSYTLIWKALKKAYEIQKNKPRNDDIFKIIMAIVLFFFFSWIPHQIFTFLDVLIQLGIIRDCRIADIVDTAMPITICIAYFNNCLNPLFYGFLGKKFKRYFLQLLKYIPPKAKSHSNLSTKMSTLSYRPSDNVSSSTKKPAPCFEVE
Put plainly: AT1 radioligand binding assay ([Eu]AngII displacement). The following applies: [Eu]AngII at 2 nM, membranes of CHO-K1 cells expressing human AT1; read-out: pKi at the AT1 receptor (converted). As to the method: These in vitro assays were used to assess the ability of test compounds to bind to the AT1 and the AT2 receptors.
Membrane Preparation From Cells Expressing Human AT1 or AT2 Receptors
Chinese hamster ovary (CHO-K1) derived cell lines stably expressing the cloned human AT1 or AT2 receptors, respectively, were grown in HAM's-F12 medium supplemented with 10% fetal bovine serum, 10 μg/ml penicillin/streptomycin, and 500 μg/ml geneticin in a 5% CO2 humidified incubator at 37° C. AT2 receptor expressing cells were grown in the additional presence of 100 nM PD123,319 (AT2 antagonist). When cultures reached 80-95% confluence, the cells were washed thoroughly in PBS and lifted with 5 mM EDTA. Cells were pelleted by centrifugation and snap frozen in MeOH-dry ice and stored at −80° C. until further use.
For membrane preparation, cell pellets were resuspended in lysis buffer (25 mM Tris/HCl pH 7.5 at 4° C., 1 mM EDTA, and one tablet of Complete Protease Inhibitor Cocktail Tablets with 2 mM EDTA per 50 mL buffer (Roche cat.#1697498, Roche Molecular Biochemicals, Indianapolis, Ind.)) and homogenized using a tight-fitting Dounce glass homogenizer (10 strokes) on ice. The homogenate was centrifuged at 1000×g, the supernatant was collected and centrifuged at 20,000×g. […] Protein concentration of the membrane suspension was determined by the method described in Bradford (1976) Anal Biochem. 72:248-54. […]

Series [4] in a line: Differential scanning calorimetry (thermal stability). The class given is physicochemical. The note with it: 10° C./min from 22° C. to 250° C.; listed as crystalline compound of the invention. How it is done: Differential scanning calorimetry (DSC) was performed using a TA Instruments Model Q-100 module with a Thermal Analyst controller. Data were collected and analyzed using TA Instruments Thermal Solutions software. A 1.64 mg sample of the crystalline form of Example 2 was accurately weighed into a covered aluminum pan. After a 5 minute isothermal equilibration period at 22° C., the sample was heated using a linear heating ramp of 10° C./min from 22° C. to 250° C.
Background: Differential scanning calorimetry records heat flow against a reference as temperature is scanned.

Series [5] can be described thus: Dynamic moisture sorption (DMS) assessment. Type of series: physicochemical. As to the method:
A dynamic moisture sorption (DMS) assessment (also known as a moisture sorption-desorption profile) was performed for a sample of the crystalline form of Example 2 using a VTI atmospheric microbalance, SGA-100 system (VTI Corp., Hialeah, Fla. 33016). A sample size of approximately 4.27 mg was used and the humidity was set at the ambient value at the start of the analysis. The DMS analysis consisted of a scan rate of 5% RH/step over the full humidity range of 2% relative humidity (RH) to 90% RH. The DMS run was performed isothermally at 25° C.

Series [6] in a line: Micronization with a jet mill, particle size distribution. The class given is physicochemical. An excerpt: A sample of the crystalline freebase prepared as in Example 7 was micronized with a jet mill to give a free-flowing white powder. No issues were encountered during the micronization process.
[7] abbreviates: closed container, listed as amorphous freebase.
Where [8] appears, read: closed container, listed as crystalline freebase.
Where [9] appears, read: all conditions: 5° C., 25° C. and 40° C., closed container.

“Also recorded” adds a separate entry of the source. Where a name gives a salt, the structure may show the parent alone. Some results are limits rather than exact numbers.

As to `CCOc1nc(CC)c(CNC(=O)[C@@H](S)CC(C)C)n1Cc1ccc(-c2ccccc2C(=O)O)cc1F` [Example 1, 4′-{2-Ethoxy-4-ethyl-5-[((S)-2-mercapto-4-methylpentanoylamino)methyl]imidazol-1-ylmethyl}-3′-fluorobiphenyl-2-carboxylic Acid], the “purity after 7 days at 40° C.” value in series [1] (setting [7]) stood at 86.8 % AUC. The “purity at time 0” value in series [1] (listed as amorphous freebase) is recorded as 97.5 % AUC. For the same compound, the “purity after 14 days at 40° C.” value in series [2] (setting [7]) amounted to 82.4 % AUC. Also, in series [2] (28 days at 40° C., listed as amorphous freebase), the “change in chemical purity after 28 days of storage at 40° C.” value (from here on “change in chemical purity … at 40° C.”) is “decline in purity”. Also, the loss of purity entry in series [3] (heated at 60° C. for 1 day) is recorded as “about 50%”. The Ki on human AT1 receptor is under 100 nM.
For `CCOc1nc(CC)c(CNC(=O)[C@@H](S)CC(C)C)n1Cc1ccc(-c2ccccc2C(=O)O)cc1F` [Example 2, 4′-{2-Ethoxy-4-ethyl-5-[((S)-2-mercapto-4-methylpentanoylamino)methyl]imidazol-1-ylmethyl}-3′-fluorobiphenyl-2-carboxylic Acid], in series [4], the “thermal decomposition (DSC thermograph)” value was “no significant thermal decomposition below about 150 °C”. The “weight gain in the humidity range of 40-75% RH” value in series [5] (unmicronized) was “less than 1%”. In series [5] (up to 75% RH, 25° C.), the “weight gain when exposed to up to 75% relative humidity” value was “less than 1%”.
Turning to `CCOc1nc(CC)c(CNC(=O)[C@@H](S)CC(C)C)n1Cc1ccc(-c2ccccc2C(=O)O)cc1F` [Example 6, 4′-{2-Ethoxy-4-ethyl-5-[((S)-2-mercapto-4-methylpentanoylamino)methyl]imidazol-1-ylmethyl}-3′-fluorobiphenyl-2-carboxylic Acid], the loss of purity in series [3] (heated at 60° C. for 5 days) was 2%.
Consider `CCOc1nc(CC)c(CNC(=O)[C@@H](S)CC(C)C)n1Cc1ccc(-c2ccccc2C(=O)O)cc1F` [Example 7, 4′-{2-Ethoxy-4-ethyl-5-[((S)-2-mercapto-4-methylpentanoylamino)methyl]imidazol-1-ylmethyl}-3′-fluorobiphenyl-2-carboxylic Acid], for which the “purity after 7 days at 40° C.” value in series [1] (setting [8]) stood at 98.4 % AUC. In series [1] (28 days at 40° C., closed container, listed as crystalline freebase), the “purity after 28 days at 40° C.” value is 98.4 % AUC. Also, the “purity at time 0” value in series [1] (listed as crystalline freebase) came out at 98.5 % AUC. In addition, the “change in the appearance of the material after 28 days of storage” value in series [1] (setting [9]) was “no observable change in the appearance”. In series [2] (setting [8]), the “purity after 14 days at 40° C.” value is on record as 98.3 % AUC. Also, in series [2] (28 days at 40° C., listed as crystalline freebase), the “change in chemical purity … at 40° C.” value is given as “no detectable change in chemical purity; also recorded: minimal chemical degradation”. The “change in chemical purity after 28 days of storage” value in series [2] (setting [9]) is listed as “no detectable change in chemical purity”. Also, in series [6] (Post-Micronization), the “particle size D (v, 0.1)” value came out at 0.79 μm; the “particle size D (v, 0.5)” value is listed as 2.59 μm; the “particle size D (v, 0.9)” value came out at 7.07 μm. Further, in series [6] (Pre-Micronization), the “particle size D (v, 0.1)” value amounted to 1.73 μm; the “particle size D (v, 0.5)” value came to 11.32 μm; the “particle size D (v, 0.9)” value is on record as 50.73 μm. The “weight gain in the humidity range of 40-75% RH” value in series [5] (micronized material) amounted to 0.7%.
For the compound `CCOc1nc(CC)c(CNC(=O)[C@@H](S)CC(C)C)n1Cc1ccc(-c2ccccc2C(=O)O)cc1F` [amorphous TFA salt, 4′-{2-ethoxy-4-ethyl-5-[((S)-2-mercapto-4-methylpentanoyl-amino)methyl]imidazol-1-ylmethyl}-3′-fluorobiphenyl-2-carboxylic acid], the “purity after 7 days at 40° C.” value in series [1] (closed container) came to 73.5 % AUC. For the same compound, in series [2] (closed container), the “purity after 14 days at 40° C.” value is 62.2 % AUC. Besides, the “change in chemical purity … at 40° C.” value in series [2] (28 days at 40° C.) is given as “decline in purity”. In addition, the “purity after 28 days at 40° C.” value in series [2] (28 days at 40° C., closed container) is 47.1 % AUC. In series [2] (HPLC area percentage, time 0), the “purity at time 0” value was 97.7 % AUC.
